{"source": "paper PMC10830420", "about": "“Structures, functions and adaptations of the human LINE-1 ORF2 protein” (Nature, 2023)", "key": {"ORF2p core": {"target": "T1, ORF2p core (Homo sapiens, UniProt O00370)", "T1 construct": "His6-MBP-3C-ORF2p (238-1061, ORFeus-Hs) in pET41; His6-MBP (3C protease site) (N, cleaved yes); made in house; host or cells: E. coli", "assay": "Gel-based L1 RT assay, ORF2p core, inhibition by NRTI triphosphates", "assay_type": "biochemical", "details": "100 nM dNTP mixture", "method": "ORF2p core was preincubated with a template:primer containing a single site for the incorporation of a given nucleotide analogue. The primer/template sequence shown in the panel a illustrates the case of single incorporation of 3TC, with a single G for incorporation; the incoming template sequence for entecavir and carbovir has a single C, and for d4T a single A, each at position labeled “N”. Reactions were incubated for one minute at 37 °C with a 100 nM dNTP mixture and increasing concentrations of listed inhibitors. IC50 index, fold = IC50 (drug, µM) ÷ [dNTP] […] Fluorescein-labeled dNTPs (here, uracil-TP) are incorporated by ORF2p into a biotinylated primer, here shown against a poly(A) template. Detection is then achieved using FRET with a terbium cryptate labeled streptavidin, and the time-resolved technique and time-delayed emission from terbium cryptate reduces background from other fluorescent chemicals in the mix. In the presence of ORF2p RT inhibitors (RTIs), base incorporation is stopped and FRET signal is lost. […]\nORF2p reverse transcriptase activity assays […]\nGel-based RT activity assays consisted of pr e-incubating RTs with annealed DNA/RNA, DNA/DNA, or RNA/RNA 5’- end- radiolabeled or 5’-end-Cy5- o r FAM-labeled template:primer duplex or hybrid duplex and, where indicated, inhibitor in the presence of 0.1- 1 μ M dNTP or NTP mixture, 0.25 mM EDTA, 50 mM NaCl, and 25 mM Tris (pH 8) for 10 min at 37°C. Labeled nucleic acids were purchased from Dharmacon or IDT. Unless otherwise indicated, 15 μL reactions were initiated by the addition of 1.3 mM MgCl2, incubated for 10 min at 37 °C, and then stopped by the addition of 15 μL of formamide/EDTA (25 mM) mixture and incubated at 95 °C for 10 min. 3 μL reaction samples were subjected to denaturing 8 M urea 20% PAGE to resolve products followed by signal quantification (ImageQuant 5.2, GE Healthcare Bio- Sciences) through phosphorimaging (Amersham Typhoon 5, Cytivia). Scanned gel images are […]\nminor products; original images are provided in an Extended Data file. […]"}, "[1]": {"system": "cytosolic RNA:DNA hybrids in L1-transfected HeLa and U2-OS cells", "assay": "LINE-1 and RNA:DNA hybrid immunofluorescence", "assay_type": "cell-based, human", "details": "50 µM, added at the time of transfection, 24 h", "method": "Constructs all include C-terminal 3C-3xFlag tag on ORF2p and are synthetic ORFeus-Hs[63] sequence except where L1RP is indicated (L1 retinitis pigmentosa locus, AF148856, pLD564[17]). Cells were fixed in methanol and stained 24 h post transfection with the indicated constructs. Images are representative from 4 independent experiments. D4T RTI treatment is 50 µM, added at the time of transfection.\nCulture Collection ( AT CC); THP1-Dual and THP1- Dual KO-TREX1 cells were from InvivoGen. All cell lines were maintained at 37 °C and 5% CO2 and validated and tested for mycoplasma. All plasmids and affinity reagents are described in Supplementary Tables 4-5 , respectively and available from Addgene at https://www.addgene.org/browse/article/28243724/.\nLINE-1 and RNA:DNA hybrid immunofluorescence […]\ninduced using 200 µM IPTG overnight at 16°C, purified by sequential Ni-NTA affinity, heparin affinity, and gel filtration, and the monodisperse fraction was concentrated to 7 mg/ml. 150,000 HeLa or U2OS cells were plated on 22 mm glass coverslips in 6-well dishes and transfected with 2 µg of plasmid DNA using Lipofectamine 3000 (Thermo) according to the manufacturer’s instructions, with or without 50 µM d4T. […]\nCells were lysed in ice cold RIPA buffer containing 1x protease inhibitor tablet (Thermo), centrifuged for 10 minutes, and clarified lysates were quantified by BCA assay. […]"}, "[2]": {"system": "L1 retrotransposition reporter in HeLa cells", "assay": "LINE-1 dual luciferase retrotransposition assay in HeLa cells", "assay_type": "cell-based, human", "details": "Homo sapiens; HeLa cells, stable dual luciferase L1 reporter, normalized to cell viability; n = 3 wells; read-out: IC50"}}, "note": "“Also recorded” adds a separate entry of the source.", "data": [{"compound": "Cc1cn([C@H]2C=C[C@@H](CO)O2)c(=O)[nH]c1=O", "note": "[d4T, stavudine]", "values": [{"measurement": "IC50 index, fold = IC50 (drug, µM) ÷ [dNTP] (natural counterpart, 0.1 µM)", "setting": "ORF2p core", "result": 4.1, "unit": "fold"}, {"measurement": "IC50", "setting": "ORF2p core; NTP forms of NRTIs, one minute at 37 °C", "result": "400 to 600", "unit": "nM"}, {"measurement": "formation of cytosolic RNA:DNA hybrids", "setting": "[1]", "result": "ablated; also recorded: inhibited"}, {"measurement": "IC50", "setting": "[2]", "result": 3100, "unit": "nM"}]}]}
